Data published in paper PMC6010102, “N-thioalkylcarbazoles derivatives as new anti-proliferative agents: synthesis, characterisation and molecular mechanism evaluation” (Journal of Enzyme Inhibition and Medicinal Chemistry, 2018).

What was measured:
[1] = tested on: ISHIKAWA human endometrial adenocarcinoma cells; test: MTT cell viability, ISHIKAWA; assay type: cell-based; conditions: 72 h exposure, mean ± SD, read-out: Antiproliferative activity IC50, ISHIKAWA
Text: (§1) The six cell lines used in this work were purchased from American Type Culture Collection (ATCC, Manassas, VA). MCF-7 human breast cancer cells, oestrogen receptor (ER) positives, were maintained in Dulbecco’s Modified Eagle’s Medium/Nutrient Mixture F-12 Ham (DMEM/F12), supplemented with 5% foetal bovine serum (FBS) and 100 U/ml penicillin/streptomycin, as previously described. MDA-MB-231, human breast cancer cells, oestrogen receptor (ER) negative, were maintained in Dulbecco’s Modified Eagle’s Medium/Nutrient Mixture F-12 Ham (DMEM/F12), supplemented with 5% Newborn Calf Serum (NCS) and 100 U/ml penicillin/streptomycin. HeLa human epithelial cervix carcinoma cells, oestrogen receptor (ER) negative, and ISHIKAWA human endometrial adenocarcinoma cell, oestrogen receptor positive, were maintained in minimum essential medium (MEM), supplemented with 10% FBS, 100 U/ml penicillin/streptomycin and 1% non-essential amino acid. 3T3-L1 cells line of murine fibroblasts of embryonic type, were maintained in DMEM, supplemented with 10% NCS and 100 U/ml penicillin/streptomycin. MCF-10A human mammary epithelial cells were cultured in DMEM/F12 medium, supplemented with 5% horse serum (HS) (Eurobio, Les Ullis, Cedex, France), 100 U/ml penicillin/streptomycin, […] hydrocortisone, 20 ng/ml hEGF (human epidermal growth factor), 10 μg/ml insulin and […] cholera enterotoxin (Sigma-Aldrich, Milano, Italy). Cells were maintained at 37 °C in a humidified atmosphere of 95% air and 5% CO2 and periodically screened for contamination.
(§2) MDA-MB-231, MCF-7, HeLa and ISHIKAWA cells were grown in complete medium and, before being treated, they were serum deprived for 24 h, to allow cell cycle synchronisation. Then cells were grown in phenol red-free medium supplemented with 1% DCC (destran-coated charcoal treated) FBS, then treated with increasing concentrations (0.1, 1, 10, 20, 40, 100 µM) of each compound for 72 h. Compounds were dissolved in dimethylsulphoxide (DMSO) (Sigma, St. Louis, MO) and diluted in each cell medium. Untreated cells, used as a control, were added with DMSO alone (final concentration 0.1%). Cell viability was assessed using the 3-[4,5-dimethylthiazol-2-yl]-2,5-diphenyltetrazolium bromide reagent (MTT), according to the protocol from manufacturer (Sigma-Aldrich, Milan, Italy), as previously described[37] ^, [38]. For each sample, the mean absorbance, measured at 570 nm, was expressed as a percentage of the control and plotted versus drug concentration to determine for each cell line the IC50 values (namely, drugs concentrations able to reduce cell viability of 50% with respect to the control), using GraphPad Prism 5 Software (GraphPad Inc., San Diego, CA)[39]. Each experiment was carried out in quadruplicate. Standard deviations (SD) were shown.

[2] = tested on: 3T3-L1 murine fibroblasts; test: MTT cell viability, 3T3-L1; assay type: cell-based; conditions: Mus musculus, non-tumoural cells, 72 h exposure, mean ± SD, read-out: Antiproliferative activity IC50, 3T3-L1
Text: as §1, §2

caspase-9 = test: Caspase-Glo assay, caspase-9; assay type: cell-based, human; conditions: HeLa cells, concentration equal to IC50, 24 h
Procedure: Caspases-3/7, -8 and -9 activities were measured with the Caspase-Glo Assay, according to the guidelines of manufacturer (Caspase-Glo® 3/7, 8 and 9 Assay Systems, Promega Corporation, Madison, WI) as described in Iacopetta et al.[43].

hTopoI = target: T1, hTopoI (Homo sapiens, UniProt P11387); test: Human topoisomerase I relaxation assay; assay type: biochemical; conditions: direct in vitro assay, data not shown
T1 sequence (P11387 1-765): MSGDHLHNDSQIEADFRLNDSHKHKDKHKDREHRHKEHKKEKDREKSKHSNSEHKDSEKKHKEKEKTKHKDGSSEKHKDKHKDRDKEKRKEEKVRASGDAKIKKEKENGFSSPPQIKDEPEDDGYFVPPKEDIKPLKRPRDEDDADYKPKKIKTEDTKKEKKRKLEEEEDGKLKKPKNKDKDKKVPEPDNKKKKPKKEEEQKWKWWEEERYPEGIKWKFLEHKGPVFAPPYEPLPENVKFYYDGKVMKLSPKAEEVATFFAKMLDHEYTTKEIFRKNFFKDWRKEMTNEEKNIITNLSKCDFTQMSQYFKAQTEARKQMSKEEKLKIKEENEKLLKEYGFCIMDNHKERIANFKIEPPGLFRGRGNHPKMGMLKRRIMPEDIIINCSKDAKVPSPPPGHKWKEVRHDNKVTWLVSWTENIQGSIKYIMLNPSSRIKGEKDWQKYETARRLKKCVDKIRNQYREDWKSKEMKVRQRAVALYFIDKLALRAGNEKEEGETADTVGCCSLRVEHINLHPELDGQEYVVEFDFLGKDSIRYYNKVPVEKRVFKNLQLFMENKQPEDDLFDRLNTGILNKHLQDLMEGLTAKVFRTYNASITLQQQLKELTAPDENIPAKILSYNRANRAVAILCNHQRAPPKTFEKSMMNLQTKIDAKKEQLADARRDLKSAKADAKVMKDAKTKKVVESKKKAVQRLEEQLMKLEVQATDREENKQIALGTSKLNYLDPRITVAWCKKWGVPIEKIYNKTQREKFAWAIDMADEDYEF
Procedure: Human topoisomerase I relaxation assay: hTopoI relaxation assays were performed as reported in Iacopetta et al.[8].

hTopoII = hTopoII (Homo sapiens, UniProt P11388); test: Human topoisomerase II decatenation assay; assay type: biochemical; conditions: 10 µM
Chain of hTopoII (P11388 whole entry): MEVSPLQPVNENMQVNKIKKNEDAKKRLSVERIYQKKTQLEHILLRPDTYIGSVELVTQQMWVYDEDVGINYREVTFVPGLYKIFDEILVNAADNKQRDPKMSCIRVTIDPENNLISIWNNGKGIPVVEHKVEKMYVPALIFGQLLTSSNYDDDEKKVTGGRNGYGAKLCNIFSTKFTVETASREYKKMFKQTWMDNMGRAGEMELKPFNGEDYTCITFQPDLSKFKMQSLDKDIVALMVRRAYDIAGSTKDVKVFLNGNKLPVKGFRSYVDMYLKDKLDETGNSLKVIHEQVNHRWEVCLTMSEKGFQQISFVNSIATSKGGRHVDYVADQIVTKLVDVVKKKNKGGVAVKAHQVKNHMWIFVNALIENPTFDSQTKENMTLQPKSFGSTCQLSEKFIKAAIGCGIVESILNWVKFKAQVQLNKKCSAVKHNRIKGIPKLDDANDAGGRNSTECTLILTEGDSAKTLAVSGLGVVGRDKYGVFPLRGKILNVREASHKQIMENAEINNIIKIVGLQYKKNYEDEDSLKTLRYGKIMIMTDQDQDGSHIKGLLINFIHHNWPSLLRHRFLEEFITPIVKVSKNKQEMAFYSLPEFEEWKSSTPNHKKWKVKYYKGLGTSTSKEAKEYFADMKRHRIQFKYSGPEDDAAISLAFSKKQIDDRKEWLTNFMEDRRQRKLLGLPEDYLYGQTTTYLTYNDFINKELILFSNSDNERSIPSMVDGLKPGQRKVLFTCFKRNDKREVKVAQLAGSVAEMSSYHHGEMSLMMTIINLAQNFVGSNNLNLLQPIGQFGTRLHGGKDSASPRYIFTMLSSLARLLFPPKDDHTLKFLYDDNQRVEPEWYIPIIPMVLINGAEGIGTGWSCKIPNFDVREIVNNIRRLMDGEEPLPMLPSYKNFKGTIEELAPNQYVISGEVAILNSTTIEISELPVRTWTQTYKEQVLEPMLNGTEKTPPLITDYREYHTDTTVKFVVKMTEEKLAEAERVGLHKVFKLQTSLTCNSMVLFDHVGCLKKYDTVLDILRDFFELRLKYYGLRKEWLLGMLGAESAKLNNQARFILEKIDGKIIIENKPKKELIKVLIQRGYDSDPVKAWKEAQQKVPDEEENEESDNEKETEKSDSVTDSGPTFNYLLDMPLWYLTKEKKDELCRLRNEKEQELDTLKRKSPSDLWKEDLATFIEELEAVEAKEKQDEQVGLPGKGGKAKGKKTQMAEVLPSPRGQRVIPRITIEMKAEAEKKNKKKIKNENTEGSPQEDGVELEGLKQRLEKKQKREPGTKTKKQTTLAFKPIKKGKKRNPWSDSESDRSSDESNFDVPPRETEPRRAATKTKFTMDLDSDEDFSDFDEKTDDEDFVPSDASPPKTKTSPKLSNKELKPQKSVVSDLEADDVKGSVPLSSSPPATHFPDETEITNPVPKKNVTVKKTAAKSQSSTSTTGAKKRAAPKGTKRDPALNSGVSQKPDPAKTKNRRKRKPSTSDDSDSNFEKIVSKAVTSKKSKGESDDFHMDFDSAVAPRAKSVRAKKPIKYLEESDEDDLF
Procedure: Human topoisomerase II decatenation assay: hTopoII decatenation assays were performed as reported in Iacopetta et al.[8].
Figure 2. hTopoII inhibition assay. kDNA was incubated with human Topoisomerase II in the absence (lane C, vehicle DMSO) or presence of compound 5c (lane 5c) or Ellipticine (lane E) at 10 and 50 µM, respectively. Lane K, kinetoplast DNA (kDNA).

[3] = tested on: HeLa human epithelial cervix carcinoma cells; test: MTT cell viability, HeLa; assay type: cell-based; conditions: 72 h exposure, mean ± SD, read-out: Antiproliferative activity IC50, HeLa
Text: as §1, §2

Cc1ccc(C)c2c1c1cc(Br)ccc1n2CCCCCCCS [5c, 7-(6-Bromo-1,4-dimethyl-9H-carbazol-9-yl)-heptane-1-thiol]
IC50 [1]: 15.7 ± 0.95 µM
IC50 [2]: > 100 µM
caspase-9 activity (caspase-9): little, but significant, rise of caspase-9 activity
hTopoI inhibition (hTopoI): no inhibition
hTopoII inhibition (kDNA decatenation) (hTopoII): able to inhibit hTopoII activity
IC50 [3]: 11.3 ± 0.63 µM
